{"source": "patent US11926599B1", "about": "“1-(2-chlorobenzylideneamino)-5,5-diphenylimidazolidine-2,4-dione as an antimicrobial compound” (KING FAISAL UNIVERSITY, priority 2023, dated 2024)", "format_in_all_cases": "cell-based", "key": {"Aspergillus flavus": {"tested_on": "Aspergillus flavus", "assay": "Agar plate disc-diffusion, antifungal inhibition zone", "details": "Sabouraud's dextrose agar, 72 hours, DMSO zone subtracted", "description": "(§1) The agar plate disc-diffusion method was applied. […] The discs were then placed onto the surface of agar plates (nutrient agar for bacteria and Sabouraud's dextrose agar for fungi) seeded with the test organism. Each plate contained 15 mL of the agar medium, previously seeded with 0.2 mL of the broth culture of each organism pregrown for 18 hours. The plates were incubated at 37° C. for 48 hours, and 72 hours for fungi. The inhibition zones was measured in millimeter. Discs impregnated with DMSO were used as a control, and its inhibition zone was subtracted from the tested compound actual inhibition zone.\n(§2) The results of the antimicrobial testing can be observed in Tables 1 and 2, below, with ciprofloxacin serving as a reference."}, "[1]": {"tested_on": "Chrysosporium keratinophilum", "assay": "Agar plate disc-diffusion, antifungal inhibition zone", "details": "Sabouraud's dextrose agar, 72 hours, DMSO zone subtracted", "description": "as §1, §2"}, "Pseudomonas aeruginosa": {"tested_on": "Pseudomonas aeruginosa", "assay": "Agar plate disc-diffusion, antibacterial inhibition zone", "details": "nutrient agar, 37° C., 48 hours, DMSO zone subtracted", "description": "as §1, §2"}, "Staphylococcus aureus": {"tested_on": "Staphylococcus aureus", "assay": "Agar plate disc-diffusion, antibacterial inhibition zone", "details": "nutrient agar, 37° C., 48 hours, DMSO zone subtracted", "description": "as §1, §2"}, "Escherichia coli": {"tested_on": "Escherichia coli", "assay": "Agar plate disc-diffusion, antibacterial inhibition zone", "details": "nutrient agar, 37° C., 48 hours, DMSO zone subtracted", "description": "as §1, §2"}, "Bacillus cereus": {"tested_on": "Bacillus cereus", "assay": "Agar plate disc-diffusion, antibacterial inhibition zone", "details": "nutrient agar, 37° C., 48 hours, DMSO zone subtracted", "description": "as §1, §2"}, "[2]": {"details": "A = concentration of comp. = 10,000 μL"}, "[3]": {"details": "B = concentration of comp. = 30.000 μL"}, "[4]": {"details": "C = concentration of comp. = 50,000 μL"}}}
{"smiles": "O=C1NC(=O)C(c2ccccc2)(c2ccccc2)N1/N=C/c1ccccc1Cl", "note": "[Compound 4, 1-(2-chlorobenzylideneamino)-5,5-diphenylimidazolidine-2,4-dione]", "values": [{"measurement": "inhibition zone, Aspergillus flavus, A", "setting": "Aspergillus flavus; [2]", "result": 25, "unit": "millimeter"}, {"measurement": "inhibition zone, Aspergillus flavus, B", "setting": "Aspergillus flavus; [3]", "result": 24, "unit": "millimeter"}, {"measurement": "inhibition zone, Aspergillus flavus, C", "setting": "Aspergillus flavus; [4]", "result": 36, "unit": "millimeter"}, {"measurement": "inhibition zone, Chrysosporium keratinophilum, A", "setting": "[1]; [2]", "result": 27, "unit": "millimeter"}, {"measurement": "inhibition zone, Chrysosporium keratinophilum, B", "setting": "[1]; [3]", "result": 29, "unit": "millimeter"}, {"measurement": "inhibition zone, Chrysosporium keratinophilum, C", "setting": "[1]; [4]", "result": 50, "unit": "millimeter"}, {"measurement": "inhibition zone, Pseudomonas aeruginosa, A", "setting": "Pseudomonas aeruginosa; [2]", "result": 20, "unit": "millimeter"}, {"measurement": "inhibition zone, Pseudomonas aeruginosa, B", "setting": "Pseudomonas aeruginosa; [3]", "result": 24, "unit": "millimeter"}, {"measurement": "inhibition zone, Pseudomonas aeruginosa, C", "setting": "Pseudomonas aeruginosa; [4]", "result": 34, "unit": "millimeter"}, {"measurement": "inhibition zone, Staphylococcus aureus, A", "setting": "Staphylococcus aureus; [2]", "result": 10, "unit": "millimeter"}, {"measurement": "inhibition zone, Staphylococcus aureus, B", "setting": "Staphylococcus aureus; [3]", "result": 17, "unit": "millimeter"}, {"measurement": "inhibition zone, Staphylococcus aureus, C", "setting": "Staphylococcus aureus; [4]", "result": 20, "unit": "millimeter"}, {"measurement": "inhibition zone, Escherichia coli, A", "setting": "Escherichia coli; [2]", "result": 27, "unit": "millimeter"}, {"measurement": "inhibition zone, Escherichia coli, B", "setting": "Escherichia coli; [3]", "result": 32, "unit": "millimeter"}, {"measurement": "inhibition zone, Escherichia coli, C", "setting": "Escherichia coli; [4]", "result": 51, "unit": "millimeter"}, {"measurement": "inhibition zone, Bacillus Cereus, A", "setting": "Bacillus cereus; [2]", "result": 26, "unit": "millimeter"}, {"measurement": "inhibition zone, Bacillus Cereus, B", "setting": "Bacillus cereus; [3]", "result": 29, "unit": "millimeter"}, {"measurement": "inhibition zone, Bacillus Cereus, C", "setting": "Bacillus cereus; [4]", "result": 41, "unit": "millimeter"}]}
